Results from the supplement of paper PMC5908809.

How the values were obtained:
[1] = tested on: normal NK cells expanded with K562-aAPC; assay: percent inhibition of viability; higher = more inhibition; settings: 72 h, IL-2 2.5 ng/mL
Method: (§1)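 Drug sensitivity and resistance testing on K562-aAPC-expanded normal NK cells: 5 concentrations (10-fold steps over a 10,000-fold range), 72 h at 37 °C, viability by CellTiter-Glo normalised to DMSO and benzethonium chloride controls; DSS from the fitted curve.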

[2] = tested on: DERL-7 (IL-2 2.5 ng/mL); assay: as above; settings: 72 h
[3] = tested on: IMC-1 (IL-2 20 ng/mL); assay: as above; settings: 72 h
[4] = tested on: KAI3 (IL-2 2.5 ng/mL); assay: as above; settings: 72 h
[5] = tested on: KHYG-1 (IL-2 2.5 ng/mL); assay: as above; settings: 72 h
[6] = tested on: NK-92 (IL-2 2.5 ng/mL); assay: as above; settings: 72 h
[7] = tested on: NK-YS (IL-2 2.5 ng/mL); assay: as above; settings: 72 h
[8] = tested on: NKL (IL-2 2.5 ng/mL); assay: as above; settings: 72 h
[9] = tested on: SNK-6 (IL-2 2.5 ng/mL); assay: as above; settings: 72 h
[10] = tested on: YT (IL-2 2.5 ng/mL); assay: as above; settings: 72 h
[11] = tested on: normal primary NK cells, pool 1 (3 donors) (IL-2 2.5 ng/mL); assay: as above; settings: 72 h
[12] = tested on: normal primary NK cells, pool 1 (3 donors), resting (IL-2 0 ng/mL); assay: as above; settings: 72 h
[13] = tested on: normal primary NK cells, pool 2 (3 donors) (IL-2 2.5 ng/mL); assay: as above; settings: 72 h
[14] = tested on: normal primary NK cells, pool 3 (3 donors) (IL-2 2.5 ng/mL); assay: as above; settings: 72 h
[15] = tested on: normal NK cells expanded with K562-aAPC; assay: drug sensitivity score (DSS) (DSS units); higher = more sensitive; extreme values may be limits of the assay; settings: 72 h; IL-2 2.5 ng/mL
Method: as §1

[16] = tested on: DERL-7 (IL-2 2.5 ng/mL); assay: as above; settings: 72 h
[17] = tested on: IMC-1 (IL-2 20 ng/mL); assay: as above; settings: 72 h
[18] = tested on: KAI3 (IL-2 2.5 ng/mL); assay: as above; settings: 72 h
[19] = tested on: KHYG-1 (IL-2 2.5 ng/mL); assay: as above; settings: 72 h
[20] = tested on: NK-92 (IL-2 2.5 ng/mL); assay: as above; settings: 72 h
[21] = tested on: NK-YS (IL-2 2.5 ng/mL); assay: as above; settings: 72 h
[22] = tested on: NKL (IL-2 2.5 ng/mL); assay: as above; settings: 72 h
[23] = tested on: SNK-6 (IL-2 2.5 ng/mL); assay: as above; settings: 72 h
[24] = tested on: YT (IL-2 2.5 ng/mL); assay: as above; settings: 72 h
[25] = tested on: normal primary NK cells, pool 1 (3 donors) (IL-2 2.5 ng/mL); assay: as above; settings: 72 h
[26] = tested on: normal primary NK cells, pool 1 (3 donors), resting (IL-2 0 ng/mL); assay: as above; settings: 72 h
[27] = tested on: normal primary NK cells, pool 2 (3 donors) (IL-2 2.5 ng/mL); assay: as above; settings: 72 h
[28] = tested on: normal primary NK cells, pool 3 (3 donors) (IL-2 2.5 ng/mL); assay: as above; settings: 72 h

CC(=O)O[C@@]12CO[C@@H]1C[C@H](O)[C@@]1(C)C(=O)[C@H](O)C3=C(C)[C@@H](OC(=O)[C@H](O)[C@@H](NC(=O)OC(C)(C)C)c4ccccc4)C[C@@](O)([C@@H](OC(=O)c4ccccc4)[C@H]21)C3(C)C [Docetaxel] (max concentration tested 1000 nM)
percent inhibition of viability [%]
Settings | 0.1 nM | 1 nM | 10 nM | 100 nM | 1000 nM
[1] | 1.57 | -0.15 | 44.7 | 62.4 | 60.9
[2] | -4.53 | 0.19 | 99.5 | 100 | 100
[3] | -1.65 | 2.39 | 97.9 | 101 | 101
[4] | -10.5 | 19.4 | 46.7 | 57.1 | 51.6
[5] | -5.67 | 3.57 | 90.9 | 108 | 109
[6] | -6.6 | 2.65 | 46 | 98.9 | 104
[7] | -7.69 | 14.3 | 74.8 | 77.7 | 73.1
[8] | -13.8 | 29 | 88.5 | 97.8 | 96.7
[9] | 15 | 38.3 | 77.9 | 76.7 | 70.6
[10] | -3.12 | 22.3 | 90.7 | 105 | 105
[11] | -5.72 | -1.18 | 7.27 | 4.99 | 10.2
[12] | -16.6 | -21.6 | -3.21 | -14.6 | 1.53
[13] | -10.9 | -7.43 | 13.8 | 3.59 | 13.1
[14] | -13.5 | -17 | 14 | 7.86 | 24.8

Settings | drug sensitivity score
[15] | 16.8
[16] | 30.4
[17] | 30.5
[18] | 18.3
[19] | 29.3
[20] | 23.4
[21] | 25.9
[22] | 32.2
[23] | 28.8
[24] | 31.9
[25] | 0
[26] | 0
[27] | 0.25
[28] | 1.58

CN1CCC(COc2cnc(-c3cccc(Cn4nc(-c5cccc(C#N)c5)ccc4=O)c3)nc2)CC1 (max concentration tested 1000 nM)
percent inhibition of viability [%]
Settings | 0.1 nM | 1 nM | 10 nM | 100 nM | 1000 nM
[1] | -4.81 | -10.8 | -1.01 | -5.56 | 4.27
[2] | -4.25 | -4.18 | 3.15 | 4.81 | 39.5
[3] | -6.71 | -2.19 | -0.81 | -1.98 | -3.26
[4] | -0.84 | -8.6 | -8.84 | -7.75 | -3.69
[5] | 0.03 | -2.13 | -6.37 | 1.52 | 15.3
[6] | -7.1 | -4.45 | 1.23 | -11.4 | 6.42
[7] | -1.64 | -6.91 | -7.12 | -5.26 | -5.69
[8] | 4.34 | -14.9 | -8.56 | -9.54 | 20.4
[9] | 10.8 | 3.77 | -9.85 | 14 | 13.7
[10] | 4 | 0.64 | -1.46 | -0.52 | -0.42
[11] | -7 | -6.88 | -13.8 | 1.64 | 4.06
[12] | -5.12 | -27.4 | -19.6 | 3.81 | 3.64
[13] | -17.1 | 4.11 | -9.87 | -10 | -13.3
[14] | -8.96 | -8.97 | -7.75 | -16 | -13.7

Settings | drug sensitivity score
[15] | 0
[16] | 2.76
[17] | 0
[18] | 0
[19] | 0.39
[20] | 0
[21] | 0
[22] | 0.35
[23] | 1.09
[24] | 0
[25] | 0
[26] | 0
[27] | 0
[28] | 0

C[C@@H](Nc1cc(F)cc(F)c1)c1cc(C(=O)N(C)C)cc2c(=O)cc(N3CCOCC3)oc12 [AZD-8186] (max concentration tested 1000 nM)
percent inhibition of viability [%]
Settings | 0.1 nM | 1 nM | 10 nM | 100 nM | 1000 nM
[1] | -7 | -2.1 | -0.27 | 1.82 | 6.33
[2] | -0.61 | -0.52 | 0.73 | 12.4 | 17.2
[3] | -4.26 | -2.05 | -9.6 | -12.9 | -13.3
[4] | -2.99 | 1.77 | 1.66 | 8.81 | 5.34
[5] | -0.98 | -2.42 | -2.86 | 0.88 | -3.51
[6] | -5.14 | -3.4 | -6.34 | 7.87 | 29.8
[7] | -5.07 | -6.92 | -2.82 | -2.72 | 4.56
[8] | -15.3 | -13.8 | -5.07 | -8.33 | -6.27
[9] | 10 | 11.1 | -10.9 | -9.3 | -17.3
[10] | -0.09 | -4.44 | -2.79 | 1.47 | 3.03
[11] | -5.02 | -7 | 5.11 | 5.09 | 16.9
[12] | 3.9 | -3.52 | 11.1 | 13.5 | 24.3
[13] | -10.7 | -2.64 | -11.3 | -1.73 | 4.08
[14] | -6.84 | -3.88 | -7.48 | -5.25 | -2.65

Settings | drug sensitivity score
[15] | 0
[16] | 1.36
[17] | 0
[18] | 0
[19] | 0
[20] | 2.45
[21] | 0
[22] | 0
[23] | 0
[24] | 0
[25] | 0.51
[26] | 2.41
[27] | 0
[28] | 0

COc1c(C)cnc(Cn2cnc3c(Cl)nc(N)nc32)c1C [BIIB021] (max concentration tested 10000 nM)
percent inhibition of viability [%]
Settings | 1 nM | 10 nM | 100 nM | 1000 nM | 10000 nM
[1] | -1.27 | -2.67 | 62.1 | 98.6 | 100
[2] | 2.38 | 6.56 | 62.9 | 99.9 | 101
[3] | 1.18 | -3.95 | 26.6 | 99.6 | 101
[4] | -2.5 | 4.1 | 75.8 | 98.8 | 102
[5] | -2.8 | -2.89 | 77.1 | 99.3 | 104
[6] | -8.24 | -13.2 | 51.8 | 95.9 | 101
[7] | 0.34 | 0.63 | 61.5 | 97.2 | 102
[8] | -6.72 | -10.3 | 45.6 | 85.8 | 86.2
[9] | 19 | -3.8 | 92.6 | 91 | 90.3
[10] | -3.19 | -0.41 | 48.3 | 90.5 | 94.5
[11] | -3.67 | 7.97 | 27.8 | 79 | 88
[12] | 15.4 | 12.6 | 10.4 | 36.1 | 51
[13] | -9.44 | -10.5 | 39.7 | 81.5 | 83.5
[14] | -13.8 | -15 | 16.2 | 78.9 | 87.8

Settings | drug sensitivity score
[15] | 25.3
[16] | 25.7
[17] | 22
[18] | 27.3
[19] | 26.8
[20] | 24.4
[21] | 25.3
[22] | 21.3
[23] | 28
[24] | 22.8
[25] | 17.8
[26] | 8.4
[27] | 20.3
[28] | 16.6

CN1CCC(CNc2ccc3ncc(-c4cccc(OC(F)(F)F)c4)n3n2)CC1 [SGI-1776] (max concentration tested 10000 nM)
percent inhibition of viability [%]
Settings | 1 nM | 10 nM | 100 nM | 1000 nM | 10000 nM
[1] | 0.39 | 2.03 | 3.74 | 25.6 | 101
[2] | 4.46 | 1.8 | 11.3 | 43.9 | 101
[3] | -2.53 | -0.64 | 0.12 | -0.28 | 101
[4] | -4.36 | -2.13 | -0.56 | 14.2 | 104
[5] | 2.2 | 0.67 | 5.12 | 10.8 | 104
[6] | 0.53 | 2.3 | 2.24 | 6.57 | 105
[7] | 2.39 | 2.07 | 3.08 | 7.09 | 105
[8] | -15.4 | -12.2 | -2.55 | 18.8 | 103
[9] | 11.8 | -1.96 | 7.5 | -1.42 | 101
[10] | 2.03 | -1.52 | 2.24 | 5.9 | 105
[11] | -1.59 | -15.9 | 0.28 | 11.6 | 101
[12] | 4.88 | -2.56 | 18.3 | 29.4 | 99.8
[13] | -5.28 | -4.01 | 7.14 | 23.6 | 102
[14] | -9.4 | -9.39 | -5.33 | 7.82 | 100

Settings | drug sensitivity score
[15] | 9.44
[16] | 10.6
[17] | 5.65
[18] | 7.99
[19] | 7.47
[20] | 6.86
[21] | 6.92
[22] | 8.62
[23] | 5.51
[24] | 6.74
[25] | 7.48
[26] | 9.01
[27] | 9.22
[28] | 6.78
